Source: publication PMC10470313, “Developing a peptide to disrupt cohesin head domain interactions” (iScience, 2023)
Where no end group is shown, it is not given here.

Tested on: yeast cells, G2/M
Assay: Chromosome condensation by two-photon microscopy
Assay type: cell-based
Conditions: nuclear-integrated density divided by circumference, at least 40 nuclei
Procedure: Chromosome condensation depends on cohesin. However, this cohesin function can be separated from sister chromatid cohesion activity.[45]^,[46] We tested this possibility by analyzing chromatin in G2/M cells via two-photon microscopy.[47]^,[48] Cells were grown and treated as before.
The method is described in.[47]^,[48] Briefly, cells were grown to mid-log phase. Two-photon microscopy of live cells was performed with the LSM780 (Zeiss) inverted confocal microscope, using the Chameleon Vision II (Coherent) multiphoton laser (3 W, pulse width 140 fs at peak, repetition rate 80 MHz, tuning range 680-1080 nm, excitation 768 nm/image collection 512 nm). Slides were visualized with X63 N/A 1.4 objective lenses. Cells in G2/M were selected based on their morphology. Images were analyzed using Image J processing software. The condensation level is represented by the division of the nuclear-integrated density by its circumference. The significance between conditions was determined by using Student's t-test.

KRFKDMEYLSGGEKTGGYGRKKRRQRRR [CIP3-TAT]
chromatin condensation: chromatin was decondensed in comparison with the untreated cells
